From patent publication US8268789B2, “PAR-2 antagonists” (Kowa Company, Ltd., priority 2004, dated 2012)
Where two headings read alike, the source gives them in different places.

Target: T1, PAR-2 (Homo sapiens, UniProt P55085)
T1 construct: intracellular Ca^2+ level change by PAR-2 agonist in human keratinocytes expressing PAR-2; host or cells: primary human keratinocytes, passage 3 to 5
T1 sequence (P55085 26-397): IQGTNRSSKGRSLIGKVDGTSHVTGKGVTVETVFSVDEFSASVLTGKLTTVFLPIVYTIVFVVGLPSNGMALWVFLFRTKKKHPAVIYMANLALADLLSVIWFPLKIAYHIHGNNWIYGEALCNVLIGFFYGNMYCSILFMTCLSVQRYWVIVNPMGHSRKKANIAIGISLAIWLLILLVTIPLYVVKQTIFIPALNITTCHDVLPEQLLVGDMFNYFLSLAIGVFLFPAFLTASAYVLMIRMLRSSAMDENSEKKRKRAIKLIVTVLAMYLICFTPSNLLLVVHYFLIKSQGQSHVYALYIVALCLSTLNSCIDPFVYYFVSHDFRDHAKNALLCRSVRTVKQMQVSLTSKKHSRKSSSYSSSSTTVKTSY
Assay: Assay of intracellular Ca2+ level in human keratinocytes stimulated with PAR-2 agonist peptide
Format: cell-based
Details: for inhibition at 10 µg/mL: read-out: Inhibition Rate (%) (Means ± Standard Error, n = 3)
Procedure: The keratinocytes were subjected to passage culture with trypsin/EDTA, and the cells whose passage number was 3 to 5 were used in the experiment.
Flex Station Calcium assay kit 2, which is a fluorescent reagent kit for calcium assay, was purchased from Molecular Devices and used in reagent preparation according to an accompanying protocol. Probenecid, Calcium ionophore (A23187) was purchased from Sigma. The human keratinocytes were seeded at a density of 40,000 cells/well to a 96-well black-well clear-bottom plate (Corning) and cultured for 24 hours until the cells became subconfluent. After washing once with KBM, 80 μl KBM was added to each well. Subsequently, a fluorescent dye solution containing an equal volume of Probenecid at a final concentration of 2 mM (HBSS solution, pH 7.4) was added to each well and incubated at 37° C. for 1 hour. Thereafter, the plate was left for 15 minutes at room temperature and assayed at room temperature (25° C.). The test chemical and the stimulants were prepared by diluting KBM having 10-fold concentration of a final concentration respectively which were then added in a volume of 20 μL respectively for assay. Measurement was carried out with a fluorescent plate reader FlexStation (Molecular Devices) compatible with a 96-well plate equipped with an injector. The measurement through the bottom was carried out for 180 seconds at 2-second intervals at an excitation wavelength of 475 nm and at a measurement wavelength of 525 nm. The chemical was added 17 seconds after the measurement was initiated.

[1] = compound final concentration 10 μg/mL, PAR-2 agonist SLIGKV 10 μM, cultured human keratinocytes, (1-AUCantagonist/AUCcontrol)×100 of time-fluorescence intensity curve

SMILES | PAR-2 inhibitory action (inhibition of the agonist-induced increase in intracellular Ca2+ level), in words (compound final concentration 10 μg/mL, SLIGKV 10 μM, human keratinocytes, FIG. 1) | inhibition at 10 µg/mL | inhibition at 10 µg/mL [1]
NCCCC[C@H](NC(=O)CNC(=O)Nc1ccc2c(c1)c(CN1CCCC1)cn2Cc1c(Cl)cccc1Cl)C(=O)N[C@@H](Cc1ccccc1)C(=O)NC(c1ccccc1)c1ccccc1 [Example 10, [[N-[1-(2,6-dichlorophenyl)methyl]-3-(1-pyrrolidinylmethyl)-1H-indol-5-yl]aminocarbonyl]-glycine-L-lysine-L-phenylalanine-N-benzhydrylamide] | inhibition was recognized | 58.4 ± 13% | –
NCC[C@H](NC(=O)CNC(=O)Nc1ccc2c(c1)c(CN1CCCC1)cn2Cc1c(Cl)cccc1Cl)C(=O)N[C@@H](Cc1ccccc1)C(=O)NC(c1ccccc1)c1ccccc1 [Example 11, [[N-[1-(2,6-dichlorophenyl)methyl]-3-(1-pyrrolidinylmethyl)-1H-indol-5-yl]aminocarbonyl]-glycine-L-α,γ-diaminobutyrate-L-phenylalanine-N-benzhydrylamide] | – | – | 32 ± 2.3%
CN1CCN(Cc2cn(Cc3c(Cl)cccc3Cl)c3ccc(NC(=O)NCC(=O)N[C@@H](CCCCN)C(=O)N[C@@H](Cc4ccccc4)C(=O)NC(c4ccccc4)c4ccccc4)cc23)CC1 [Example 12, [[N-[1-(2,6-dichlorophenyl)methyl]-3-[1-(4-methylpiperazinyl)methyl]-1H-indol-5-yl]aminocarbonyl]-glycine-L-lysine-L-phenylalanine-N-benzhydrylamide] | – | – | 52.2 ± 1.8%
NCC[C@H](NC(=O)CNC(=O)Nc1ccc2c(c1)c(CN1CCCC1)cn2Cc1c(Cl)cccc1Cl)C(=O)N[C@@H](Cc1ccccc1)C(=O)NCc1ccccc1 [Example 20, [[N-[1-(2,6-dichlorophenyl)methyl]-3-(1-pyrrolidinylmethyl)-1H-indol-5-yl]aminocarbonyl]-glycine-L-α,γ-diaminobutyrate-L-phenylalanine-N-benzylamide] | – | – | 33.6 ± 16.8%
NCCCC[C@H](NC(=O)CNC(=O)Nc1ccc2c(c1)c(CN1CCCC1)cn2Cc1c(Cl)cccc1Cl)C(=O)N[C@@H](Cc1ccccc1)C(=O)NCc1ccccc1 [Example 21, [[N-[1-(2,6-dichlorophenyl)methyl]-3-(1-pyrrolidinylmethyl)-1H-indol-5-yl]aminocarbonyl]-glycine-L-lysine-L-phenylalanine-N-benzylamide] | – | – | 14.2 ± 10%
CC(C)n1ccc2cc(NC(=O)NCC(=O)N[C@@H](CCN)C(=O)N[C@@H](Cc3ccccc3)C(=O)NCc3ccccc3)ccc21 [Example 24, [[N-isopropyl-1H-indol-5-yl]aminocarbonyl]-glycine-L-α,γ-diaminobutyrate-L-phenylalanine-N-benzylamide] | – | – | 15.1 ± 10.5%
